Measurements as given in publication PMC6467784 (Journal of medicinal chemistry, 2019).
“And” between values parts separate entries of the source, which are not always exact repeats. Identical values can stand only once. Like-named read-outs stand apart in the source and are kept apart here. Blank lines part the entries; values can stand above or below the compound they belong to.

Columns and labels:
wild-type C57BL/6J mice [1] = assay: Body temperature and locomotor activity by telemetry after ip. dosing; format: in vivo, mouse; conditions: for Tb: 3 mg/kg ip., average from dosing to 60 min, mean ±SD; for Effect on Tb in WT mice: ip., up to 3 or 10 mg/kg
[2] = Stability in human plasma; format: in vitro ADME; conditions: human (h)
Stability in rat plasma = format: in vitro ADME
HEP-G2 hepatocytes = assay: Toxicity in HEP-G2 hepatocytes; format: cell-based
[3] = Pharmacokinetics in the male rat; format: in vivo; conditions: 3 mg/kg p.o.
2C19 CYP isozyme = 2C19 CYP isozyme (Homo sapiens, UniProt P33261); assay: CYP 2C19 inhibition; format: in vitro ADME
hCYP P450 3A4 = hCYP P450 3A4 (Homo sapiens, UniProt P08684); assay: CYP 3A4 inhibition; format: in vitro ADME
hA2BAR = target: T1, hA2BAR (Homo sapiens, UniProt P29275); assay: hA2BAR radioligand binding using [3H]54; conditions: for inhibition at 10 µM: read-out: hA2BAR % binding inhibition at 10 μM
T1 sequence (P29275 1-332): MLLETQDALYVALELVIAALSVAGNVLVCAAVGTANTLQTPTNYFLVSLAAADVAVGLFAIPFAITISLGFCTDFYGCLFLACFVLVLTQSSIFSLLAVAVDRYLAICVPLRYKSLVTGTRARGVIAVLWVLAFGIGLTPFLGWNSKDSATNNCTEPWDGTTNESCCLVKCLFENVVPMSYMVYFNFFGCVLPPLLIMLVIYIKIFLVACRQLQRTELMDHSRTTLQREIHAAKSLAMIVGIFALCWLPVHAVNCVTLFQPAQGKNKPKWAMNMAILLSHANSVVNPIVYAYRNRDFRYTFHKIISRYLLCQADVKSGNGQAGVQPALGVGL

Mouse liver microsomes = format: in vitro ADME
[4] = Stability in mouse plasma; format: in vitro ADME; conditions: mouse (m)
hCYP P450 2D6 = hCYP P450 2D6 (Homo sapiens, UniProt P10635); assay: CYP 2D6 inhibition; format: in vitro ADME
A1AR, A3AR [5] = assay: Hypothermia in A1AR, A3AR and A1AR/A3AR deficient mice; format: in vivo, mouse; conditions: 3 mg/kg ip.; for Receptor dependence of hypothermia: A1AR KO, A3AR KO, double KO mice; for ARs causing hypothermia: WT vs AR-KO mice (Figure 2)
mice = assay: Hypothermia after intracerebroventricular infusion; format: in vivo, mouse; conditions: for Tb reached after icv. administration: 5 μg injected icv. (equivalent to […])
hCYP P450 2C9 = hCYP P450 2C9 (Homo sapiens, UniProt P11712); assay: CYP 2C9 inhibition; format: in vitro ADME
CACO-2 cells = assay: CACO-2 permeability and efflux; format: in vitro ADME
Human liver microsomes = format: in vitro ADME; conditions: human
1A2 CYP isozyme = 1A2 CYP isozyme (Homo sapiens, UniProt P05177); assay: CYP 1A2 inhibition; format: in vitro ADME
Rat liver microsomes = format: in vitro ADME
[6] = Stability in simulated intestinal fluid; format: in vitro ADME
[7] = Stability in simulated gastric fluid; format: in vitro ADME
hA1AR [8] = target: T2, hA1AR (Homo sapiens, UniProt P30542); assay: hA1AR radioligand binding, CHO cell membranes; conditions: for hA1AR selectivity compared to hA3AR: ratio of binding Ki
T2 sequence (P30542 1-326): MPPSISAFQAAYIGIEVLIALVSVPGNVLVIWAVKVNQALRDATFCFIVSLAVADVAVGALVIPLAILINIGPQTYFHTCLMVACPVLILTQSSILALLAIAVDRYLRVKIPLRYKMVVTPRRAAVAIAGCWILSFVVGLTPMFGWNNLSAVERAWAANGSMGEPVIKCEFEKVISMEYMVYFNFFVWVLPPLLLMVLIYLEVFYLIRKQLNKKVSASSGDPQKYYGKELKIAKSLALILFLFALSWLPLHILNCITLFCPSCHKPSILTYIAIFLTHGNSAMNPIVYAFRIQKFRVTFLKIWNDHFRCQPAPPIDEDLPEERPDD

wild-type C57BL/6J mice [9] = conditions: average from dosing to 60 min, ref [30], cited from earlier work
A1AR, A3AR [10] = conditions: ref [30]; cited from earlier work
anesthetized rat = assay: Cardiovascular effects in the anesthetized rat; format: in vivo; conditions: 0.02 mg/kg, iv., preliminary
mA1AR = target: T3, mA1AR (Mus musculus, UniProt Q60612); assay: mA1AR radioligand binding; conditions: ratio of binding Ki
T3 sequence (Q60612 1-326): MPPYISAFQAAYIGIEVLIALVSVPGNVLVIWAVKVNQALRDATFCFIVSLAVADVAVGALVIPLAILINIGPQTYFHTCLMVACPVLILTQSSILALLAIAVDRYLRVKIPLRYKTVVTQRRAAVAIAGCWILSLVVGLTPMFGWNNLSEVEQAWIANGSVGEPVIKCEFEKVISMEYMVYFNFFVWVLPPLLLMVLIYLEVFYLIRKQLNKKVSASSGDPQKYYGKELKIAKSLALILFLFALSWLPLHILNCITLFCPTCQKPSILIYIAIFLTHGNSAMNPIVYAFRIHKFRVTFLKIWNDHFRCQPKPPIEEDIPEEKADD

[11] = system: off-target receptors and transporters; assay: PDSP off-target screen; format: binding, human
hA1AR [12] = target: T2, hA1AR; conditions: human (h); at 10 μM; ref [33],[34]; cited from earlier work
bovine A1AR = conditions: read-out: Ki at bovine A1AR; ref [36],[37]; cited from earlier work

Sequence of hCYP P450 2C9 (P11712 whole entry): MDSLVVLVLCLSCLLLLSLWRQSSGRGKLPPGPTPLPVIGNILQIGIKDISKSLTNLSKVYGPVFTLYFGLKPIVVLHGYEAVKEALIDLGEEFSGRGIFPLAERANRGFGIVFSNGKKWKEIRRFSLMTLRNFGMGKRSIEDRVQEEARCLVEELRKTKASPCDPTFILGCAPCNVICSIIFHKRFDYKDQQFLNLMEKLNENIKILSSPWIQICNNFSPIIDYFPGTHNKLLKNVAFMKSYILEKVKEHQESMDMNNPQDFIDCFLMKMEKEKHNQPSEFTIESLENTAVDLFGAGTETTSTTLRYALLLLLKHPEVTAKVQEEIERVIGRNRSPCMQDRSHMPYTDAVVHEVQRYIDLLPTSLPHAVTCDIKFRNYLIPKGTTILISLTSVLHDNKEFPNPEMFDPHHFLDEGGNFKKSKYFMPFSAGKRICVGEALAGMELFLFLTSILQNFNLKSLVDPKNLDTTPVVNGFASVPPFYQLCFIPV
Sequence of hCYP P450 2D6 (P10635 whole entry): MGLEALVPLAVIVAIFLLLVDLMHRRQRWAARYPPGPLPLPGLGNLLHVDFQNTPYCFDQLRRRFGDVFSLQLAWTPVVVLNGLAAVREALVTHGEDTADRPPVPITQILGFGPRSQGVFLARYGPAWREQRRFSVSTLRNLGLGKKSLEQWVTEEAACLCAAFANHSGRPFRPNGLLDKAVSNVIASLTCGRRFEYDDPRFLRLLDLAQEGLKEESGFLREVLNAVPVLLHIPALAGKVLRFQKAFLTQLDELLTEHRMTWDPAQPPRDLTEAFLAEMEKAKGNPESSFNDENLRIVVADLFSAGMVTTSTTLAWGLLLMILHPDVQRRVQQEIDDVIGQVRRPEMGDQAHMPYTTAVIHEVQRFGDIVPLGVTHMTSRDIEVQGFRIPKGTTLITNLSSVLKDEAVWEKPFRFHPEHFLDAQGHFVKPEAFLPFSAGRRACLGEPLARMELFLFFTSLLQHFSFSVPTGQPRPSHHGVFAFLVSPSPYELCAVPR
Sequence of 2C19 CYP isozyme (P33261 whole entry): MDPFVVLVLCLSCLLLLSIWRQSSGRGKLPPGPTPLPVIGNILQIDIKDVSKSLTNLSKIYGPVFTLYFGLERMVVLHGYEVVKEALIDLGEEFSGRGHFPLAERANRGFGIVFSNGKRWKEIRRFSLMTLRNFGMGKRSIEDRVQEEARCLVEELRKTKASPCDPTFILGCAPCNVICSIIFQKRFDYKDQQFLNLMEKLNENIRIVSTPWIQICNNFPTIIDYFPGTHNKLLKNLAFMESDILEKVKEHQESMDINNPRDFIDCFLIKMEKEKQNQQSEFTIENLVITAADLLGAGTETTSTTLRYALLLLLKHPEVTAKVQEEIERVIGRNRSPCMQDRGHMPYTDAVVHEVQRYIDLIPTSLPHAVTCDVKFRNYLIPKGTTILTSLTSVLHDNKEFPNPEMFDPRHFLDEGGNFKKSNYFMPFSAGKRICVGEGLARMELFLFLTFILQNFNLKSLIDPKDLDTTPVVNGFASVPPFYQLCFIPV
Sequence of 1A2 CYP isozyme (P05177 whole entry): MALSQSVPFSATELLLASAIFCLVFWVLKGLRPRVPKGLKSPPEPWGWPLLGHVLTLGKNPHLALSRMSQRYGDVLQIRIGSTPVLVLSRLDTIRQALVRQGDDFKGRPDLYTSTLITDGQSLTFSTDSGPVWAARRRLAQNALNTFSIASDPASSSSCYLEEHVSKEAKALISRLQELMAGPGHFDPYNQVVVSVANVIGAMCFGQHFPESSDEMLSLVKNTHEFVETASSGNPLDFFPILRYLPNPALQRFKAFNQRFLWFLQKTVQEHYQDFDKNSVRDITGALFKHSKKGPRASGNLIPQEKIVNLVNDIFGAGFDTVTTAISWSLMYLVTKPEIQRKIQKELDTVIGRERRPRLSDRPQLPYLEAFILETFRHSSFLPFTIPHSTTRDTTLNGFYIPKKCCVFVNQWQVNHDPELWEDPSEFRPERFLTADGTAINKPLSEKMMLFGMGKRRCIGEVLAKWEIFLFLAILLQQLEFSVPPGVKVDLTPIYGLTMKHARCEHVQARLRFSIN
Sequence of hCYP P450 3A4 (P08684 whole entry): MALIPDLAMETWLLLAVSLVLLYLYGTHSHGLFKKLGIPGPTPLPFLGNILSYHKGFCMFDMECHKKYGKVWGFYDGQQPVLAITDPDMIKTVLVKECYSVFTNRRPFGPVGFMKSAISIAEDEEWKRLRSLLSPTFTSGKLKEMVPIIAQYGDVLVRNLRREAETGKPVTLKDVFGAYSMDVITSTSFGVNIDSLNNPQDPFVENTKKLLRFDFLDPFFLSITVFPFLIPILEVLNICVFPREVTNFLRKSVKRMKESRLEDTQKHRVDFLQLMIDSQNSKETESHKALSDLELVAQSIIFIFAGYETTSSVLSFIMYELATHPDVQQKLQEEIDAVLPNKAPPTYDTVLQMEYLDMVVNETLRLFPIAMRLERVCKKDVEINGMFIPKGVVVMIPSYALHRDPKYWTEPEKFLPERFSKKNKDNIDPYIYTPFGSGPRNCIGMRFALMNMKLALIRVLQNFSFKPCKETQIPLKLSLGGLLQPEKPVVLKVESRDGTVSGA

Structure (SMILES): OC[C@H]1O[C@@H](n2cnc3c(NC(C4CCC4)C4CCC4)ncnc32)[C@H](O)C1O (stereo in doubt) [Compound 9, (2R,3R,4R,5R)-2-(6-((Dicyclobutylmethyl)amino)-9H-purin-9-yl)-5-(hydroxymethyl)tetrahydrofuran-3,4-diol]
Tb (wild-type C57BL/6J mice [1]): 33.0±0.7 °C
Effect on Tb in WT mice (wild-type C57BL/6J mice [1]): produced hypothermia and hypoactivity
Stability in plasma [2]: completely stable
Stability in plasma (Stability in rat plasma): completely stable
Toxicity in HEP-G2 hepatocytes (HEP-G2 hepatocytes): nontoxic
maximal concentration, molar [3]: 310 nM
Inhibition of 2C19 CYP isozyme (2C19 CYP isozyme): no inhibition
Inhibition of 3A4 CYP isozyme (hCYP P450 3A4): no inhibition
Ki (hA2BAR): 8.62 µM
Clearance in liver microsomes (Mouse liver microsomes): medium clearance
Stability in plasma [4]: completely stable
Inhibition of 2D6 CYP isozyme (hCYP P450 2D6): no inhibition
Receptor dependence of hypothermia (A1AR, A3AR [5]): dependent on A1AR, without a contribution from A3AR
ARs causing hypothermia (A1AR, A3AR [5]): A1AR selective (Figure 2)
Duration of hypothermia after icv. administration (mice; 1.67 μg/mouse icv. (= […])): ~ 10 h
Effect on Tb after icv. administration (mice; 1.67 μg/mouse icv. (= […])): deep hypothermia
Tb reached after icv. administration (mice): ~ 24 °C
Inhibition of 2C9 CYP isozyme (hCYP P450 2C9): weak inhibition
Permeability in CACO-2 cells (CACO-2 cells): high permeability
Clearance in liver microsomes (Human liver microsomes): medium clearance
Inhibition of 1A2 CYP isozyme (1A2 CYP isozyme): no inhibition
Clearance in liver microsomes (Rat liver microsomes): medium clearance
Stability in simulated intestinal fluid [6]: completely stable
Stability in simulated gastric fluid [7]: completely stable

Structure (SMILES): OC[C@H]1O[C@@H](n2cnc3c(NC(C4CCC4)C4CCC4)nc(Cl)nc32)[C@H](O)C1O (stereo in doubt) [Compound 12, (2R,3R,4R,5R)-2-(2-Chloro-6-((dicyclobutylmethyl)amino)-9H-purin-9-yl)-5-(hydroxymethyl)tetrahydrofuran-3,4-diol]
Tb (wild-type C57BL/6J mice [1]): 35.5±0.8 °C
hA1AR affinity relative to 9 (hA1AR [8]; lower affinity than 9): 8 fold
hA1AR selectivity compared to hA3AR (hA1AR [8]): 742 fold

Structure (SMILES): OC[C@H]1O[C@@H](n2cnc3c(NC4CCCC4)ncnc32)[C@H](O)[C@@H]1O [Compound 1a]
Tb (wild-type C57BL/6J mice [9]; 1 mg/kg ip.): 32.4±0.5 °C
ARs causing hypothermia (A1AR, A3AR [10]): A3AR > A1AR[30]

Structure (SMILES): OC[C@H]1O[C@@H](n2cnc3c(NC4CCCC4)nc(Cl)nc32)[C@H](O)[C@@H]1O [Compound 2]
Effect on blood pressure (anesthetized rat): sustained rise in blood pressure

Structure (SMILES): O[C@@H]1[C@H](O)[C@@H](CCl)O[C@H]1n1cnc2c(NC3C[C@H]4CC[C@@H]3C4)ncnc21 (stereo partly drawn) [Compound 4]
Tb (wild-type C57BL/6J mice [9]; 3 mg/kg ip.): 32.2±1.3 °C
ARs causing hypothermia (A1AR, A3AR [10]): A1AR > A3AR[30]

Structure (SMILES): O[C@@H]1[C@H](O)[C@@H](CCl)O[C@H]1n1cnc2c(NC(C3CCC3)C3CCC3)ncnc21 [Compound 10, (2S,3S,4R,5R)-2-(Chloromethyl)-5-(6-((dicyclobutylmethyl)amino)-9H-purin-9-yl)tetrahydrofuran-3,4-diol]
mA1AR selectivity compared to mA3AR (mA1AR): 2970 fold and > 2000 fold
hA1AR selectivity compared to hA3AR (hA1AR [8]): 3390 fold

Off-target, receptor: interactions found [11]: none
Structure (SMILES): CNC(=O)[C@H]1O[C@@H](n2cnc3c(N)ncnc32)[C@H](O)[C@@H]1O [Compound 15, reference compound]

Structure (SMILES): CCNC(=O)[C@H]1O[C@@H](n2cnc3c(N)ncnc32)[C@H](O)[C@@H]1O [Compound 16, reference compound]
Off-target, receptor: interactions found [11]: none

inhibition at 10 µM (hA2BAR): 24%
Structure (SMILES): O[C@@H]1[C@H](O)[C@@H]2C[C@@H]2[C@H]1n1cnc2c(NC(C3CCC3)C3CCC3)nc(Cl)nc21 [Compound 19]

Structure (SMILES): O[C@@H]1[C@H](O)[C@@H]2C[C@@H]2[C@H]1n1cnc2c(NC(C3CCCC3)C3CCCC3)nc(Cl)nc21 [Compound 20]
A1AR % inhibition (hA1AR [12]): 34±3% (h)

hA1AR affinity relative to 21 (hA1AR [8]; higher affinity than parent 21): 14 fold
Structure (SMILES): Nc1nc(Cl)nc2c1ncn2[C@H]1[C@H](O)[C@H](O)[C@]2(CCl)C[C@H]12 [Compound 22]

Structure (SMILES): OC[C@@]12C[C@@H]1[C@@H](n1cnc3c(NC(C4CCC4)C4CCC4)ncnc31)[C@H](O)[C@@H]2O [Compound 24, (1R,2R,3S,4R,5S)-4-(6-((Dicyclobutylmethyl)amino)-9H-purin-9-yl)-1-(hydroxymethyl)bicyclo[3.1.0]hexane-2,3-diol]
Effect on Tb after icv. administration (mice; 1.67 μg/mouse icv. (= […])): reduced Tb only slightly
Tb reached after icv. administration (mice): ~ 24 °C
A1AR selectivity (hA1AR [8]; abstract, species and comparator not stated): ~ 400 fold

Structure (SMILES): O[C@H]1[C@H](n2cnc3c(NC(C4CCC4)C4CCC4)ncnc32)[C@H]2C[C@@]2(CCl)[C@H]1O [Compound 26, (1S,2R,3S,4R,5S)-1-(Chloromethyl)-4-(6-((dicyclobutylmethyl)amino)-9H-purin-9-yl)bicyclo[3.1.0]hexane-2,3-diol]
mA1AR selectivity compared to mA3AR (mA1AR): 890 fold
hA1AR selectivity compared to hA3AR (hA1AR [8]): ~ 300 fold

Structure (SMILES): OC[C@@]12C[C@@H]1[C@@H](n1cnc3c(N[C@H]4C[C@H]5CC[C@@H]4C5)nc(Cl)nc31)[C@H](O)[C@@H]2O [Compound 29, (1R,2R,3S,4R,5S)-4-(6-(((1R,2S,4S)-Bicyclo[2.2.1]heptan-2-yl)amino)-2-chloro-9H-purin-9-yl)-1-(hydroxymethyl)bicyclo[3.1.0]hexane-2,3-diol]
Effect on Tb in WT mice (wild-type C57BL/6J mice [1]): hypothermic effect
Receptor dependence of hypothermia (A1AR, A3AR [5]): via both central A1AR and peripheral A3AR
ARs causing hypothermia (A1AR, A3AR [5]): A3AR > A1AR (Figure 2)
hA1AR selectivity compared to hA3AR (hA1AR [8]): 12 fold

Off-target, receptor: interactions found [11]: none
Structure (SMILES): OC[C@@]12C[C@@H]1[C@@H](n1cnc3c(N[C@H]4C[C@H]5CC[C@@H]4C5)nc(Cl)cc31)[C@H](O)[C@@H]2O [Compound 30]

Structure (SMILES): O[C@H]1[C@H](n2cnc3c(N[C@H]4C[C@H]5CC[C@@H]4C5)nc(Cl)nc32)[C@H]2C[C@@]2(CCl)[C@H]1O [Compound 31, (1S,2R,3S,4R,5S)-4-(6-(((1R,2S,4S)-Bicyclo[2.2.1]heptan-2-yl)amino)-2-chloro-9H-purin-9-yl)-1-(chloromethyl)bicyclo[3.1.0]hexane-2,3-diol]
Effect on Tb in WT mice (wild-type C57BL/6J mice [1]): did not significantly induce hypothermia
Off-target, receptor: interactions found [11]: none
hA1AR selectivity compared to hA3AR (hA1AR [8]): 10 fold

inhibition at 10 µM (hA2BAR): 38%
Structure (SMILES): CCOC(=O)[C@@]12C[C@@H]1[C@@H](n1cnc3c(NC(C4CCC4)C4CCC4)nc(Cl)nc31)[C@H](O)[C@@H]2O [Compound 35]

inhibition at 10 µM (hA2BAR): 39%
Structure (SMILES): NC(=O)c1ncn([C@@H]2O[C@H](CO)[C@@H](O)[C@H]2O)n1 [Compound 38, ribavirin, reference compound]
Ki (bovine A1AR): 86 µM

Structure (SMILES): NC(=O)c1ncn([C@H]2[C@H](O)[C@H](O)[C@]3(CO)C[C@H]23)n1 [Compound 40]
mA1AR selectivity compared to mA3AR (mA1AR): 25.2 nM (~400) fold
hA1AR affinity relative to 38 (hA1AR [8]; greater affinity than riboside 38): 15 fold
